The values below come from patent publication US20220133701A1, “METHODS OF TREATING PAIN” (Yeda Research and Development Co. Ltd., priority 2019, published 2022).

“Also recorded” adds a separate entry of the source.

One data set deals with mice. Briefly: Response to noxious heat (metal probe heated to 58° C. applied to paw, paw withdrawal latency). To be noted: for responsiveness to noxious heat: WT mice, 1 hour following i.p. injection, sulmazole 0.5 mg/kg, sulfamethizole 1.25 mg/kg (FIG. 8A). It counts as in vivo, mouse. As for the experimental part: Pain Models—Responses to noxious heat were assessed by applying a metal probe heated to 58° C. to a forelimb paw, while holding the animal. Paw withdrawal latency was timed, typically ranging between 2-4 seconds in wild-type animals. If the paw was not withdrawn within 20 seconds the assay was terminated. The test was repeated three times for each animal, with at least 20 minute intervals between repeats. Heat sensitivity was also assessed using the hot plate test [L. Urien et al., Sci Rep 7, 43493 (2017)]. To this end, mice were placed individually in a 20 cm high Plexiglas box on a metal surface set at 52, 55 or 58° C., and the latency to initiate a nociceptive response (licking, hind paws shaking, jumping) was monitored by videotape. Mice were removed from the plate immediately after a nociceptive response.

Data set [1] concerns SNI mice. Briefly: Spared nerve injury (SNI) model of neuropathic pain, paw withdrawal threshold (PWT) by Von Frey test. Type of data set: in vivo, mouse. To be noted: for paw withdrawal threshold (PWT) by the Von Frey test: SNI, 60 days following establishing the model, two i.p. injections with 1 week interval, sulmazole 1.25 mg/kg, sulfamethizole 3.12 mg/kg, vs vehicle (FIG. 8B); for relief in the SNI model of neuropathic pain: intraperitoneal injection at both early and late stages of chronic pain (FIGS. 8B, 21A-B, 22A-B); for mechanosensitivity, paw withdrawal threshold by Von Frey test, dose dependence: one hour following i.p. treatment, one week following establishing SNI (FIGS. 21A-B); for mechanosensitivity, Von Frey tests, time dependence: one week after SNI, 1, 5 and 24 hours following i.p. injection (FIGS. 22A-B). As for the experimental part:
(§1) Chronic neuropathic pain was assessed using the spared nerve injury (SNI) model^13. Mice were anaesthetized with Ketamine/Xylazine (10 mg/kg body weight, intraperitoneal). The skin on the lateral surface of the thigh was incised and a section was made directly through the biceps femoris muscle in order to expose the sciatic nerve and its three terminal branches: the sural, common peroneal and tibial nerves. The SNI procedure comprised an axotomy and ligation of the tibial and common peroneal nerves leaving the sural nerve intact. The peroneal and the tibial nerves were tight-ligated and sectioned distal to the ligation. […] Following, mice were evaluated over a period of three months.
(§2) Von Frey tests of sensitivity to mechanical stimuli were conducted as previously described [Marvaldi et al. Dev Neurobiol 75, 217 (2015)]. Briefly, mice were placed in acrylic chambers suspended above a wire mesh grid and allowed to habituate to the testing apparatus for one hour prior to experiments. When the mouse was calm, the von Frey filaments were pressed against the plantar surface of the paw until the filament buckled and held for a maximum of 3 seconds. A positive response was noted if the paw was sharply withdrawn on application of the filament. Testing began with filament target force 13.7 milliNewtons and progressed according to an up-down method. 2 gram Von Frey filaments were used to assess sensitivity to noxious mechanical stimulation, scoring mice responses as follows: 0, no response; 1, visible signs of discomfort without leg withdrawal; 2, withdrawal of the leg.

The test system of data set [2] is SNI mice. Briefly: Noxious mechanosensitivity of SNI mice, Von Frey filaments of 2 grams force, score 0-2. Type of data set: in vivo, mouse. To be noted: score 0 to 2 (FIG. 22C). As for the experimental part:
as §1
as §2, with “2 gram Von Frey filaments were used to assess sensitivity to noxious mechanical stimulation, scoring mice responses as follows: 0, no response; 1, visible signs of discomfort without leg withdrawal; 2, withdrawal of the leg.” left out

Data set [3] deals with c-Fos nuclear localization in DRG neurons. Briefly: c-Fos nuclear localization in cultured DRG neurons (immunostaining, quantified). Type of data set: cell-based, mouse. To be noted: sulmazole 0.5 mg/kg; for c-Fos nuclear accumulation: importin α3 null DRG neurons cultured following SNI, sulfamethizole 1.25 mg/kg (FIG. 9); for c-Fos nuclear localization: wild type DRG neurons cultured following SNI, sulfamethizole 1.25 mg/kg, vs vehicle (FIGS. 8C-D). As for the experimental part: Histology—Lumbar sections of the spinal cord including Dorsal root ganglia (DRGs) were pre-fixed for 6 minutes before dissection of spinal cord and associated DRGs. Lumbar DRG (L4, unless otherwise indicated) and/or spinal cord were then fixed for six hours in 4% PFA in PBS, washed in PBS and equilibrated in 20% w/v sucrose in PBS prior to serial cryo-sectioning at a thickness of 10-20 μm. Following, one set for each DRG was processed for immunostaining. Briefly, sections were rehydrated in PBS, blocked and permeabilized with 15% Donkey Serum, 5-10% BSA, 0.3% Triton X-100 in PBS for 1-3 hours and incubated overnight at 4° C. with Mouse anti-βIII tubulin (TuJ1, abcam, ab18207), Rabbit anti-cFos (Millipore, Ab5, 4-17), Mouse anti-cFOS (Millipore Ab5 4-17, IF 1:500), Mouse anti-Jun (BD transduction Laboratories, IF 1:1000), Rabbit TRPV1 (Alomone ACC-030, 1:500), Rabbit anti-GFP (abcam, ab6556, IF & WB1:500), Goat anti-CGRP (AbD SEROTEC, 1720-9007), MBP (Abcam ab7349, IF 1:500) or Rabbit anti-importin α3 (1:2000) antibodies. On the following day, sections were washed three times in PBS prior to incubation for 2 hours with different combinations of donkey anti-chicken/rabbit/mouse secondary antibodies (Alexa Fluor 647, 594, 488; Jackson Immunoresearch, 1:1000). Following, coverslips or slides were washed and mounted with Flouromount-G™.
Image processing—Images were acquired on a confocal laser-scanning microscope (Olympus FV1000, 60× oil-immersion objective Olympus UPLSAPO-NA 1.35) using Fluoview (FV10-ASW 4.1) software. DRG sections were scanned using camera settings identical for all genotypes in a given experiment. Images were imported into the Fiji version (www(dot)//fiji(dot)sc) of ImageJ for threshold subtraction and subsequent analyses as detailed below.
Fluorescence Intensity Analysis: Line scan analysis of fluorescence intensity was carried out on high-resolution confocal z-stack from DRG sections to determine fluorescence intensity of c-FOS and importin α3 over cell regions of interest in-vivo. Briefly, the measurement (in pixels) was effected using the ImageJ drawing tool to draw a line across a neuronal segment covering both cytoplasm and nucleus. All collected traces were then averaged for each experimental group. For comparison of nuclear and cytoplasmic staining intensity 8-bit images of either DRG sections or DRG cultured neurons were processed using the Fiji software. The integrated density was calculated as the sum of the values of the pixels in both cytoplasmic and nuclear regions of interest determined on the basis of TuJ-1, CGRP, TRPV1 or DAPI staining, respectively.
Neuronal cultures—Adult mouse DRG neurons were cultured as previously described [Perry et al. Neuron 75, 294 (2012)], with plating on poly-L-lysine and laminin coated plates or glass cover slips for 24 hours. Where required, L3-L5 DRG neurons from the uninjured side served as controls for cultures from SNI mice.

For the molecule `O=C(O)CCc1cc(C(=O)c2ccc(OC3CCCC3)cc2O)ccc1OCc1ccc2c(=O)[nH]oc2c1` [T-5224], the “response to noxious heat” value with mice (WT (+/+) mice, 20 mg/kg, i.p. (FIGS. 6J-K)) is “reduced the response to noxious heat”; in the data set with mice (importin α3 null (−/−) mice, 20 mg/kg, i.p. (FIGS. 6J-K)) it was “no additional effect beyond the already existing attenuation”. Also, the “paw withdrawal threshold (PWT) in response to noxious heat” value in the data set with mice (wild-type mice, i.p. at the indicated doses, over eight days post-treatment (FIGS. 7A-B)) is reported as “reduced paw withdrawal in response to noxious heat; also recorded: most marked effect was observed one day following injection of a dose of 10 mg/kg”. Further, the “paw withdrawal in Von Frey tests” value in the data set with SNI mice [1] (wild type animals one week following induction of SNI, 10 mg/kg (FIG. 18)) is listed as “did ameliorate the paw withdrawal latency”.
For the molecule `NCC1(CC(=O)O)CCCCC1` [gabapentin], the “paw withdrawal threshold (PWT) in Von Frey tests” value in the data set with SNI mice [1] (SNI mice, 100 mg/kg intraperitoneal two months following establishment of the model, again one week later (FIG. 2D)) is given as “significant amelioration of the phenotype”.
In the case of `Cc1nnc(NS(=O)(=O)c2ccc(N)cc2)s1` [sulfamethizole, 4-Amino-N-(5-methyl-1,3,4-thiadiazol-2-yl)benzenesulfonamide], the “responsiveness to noxious heat” value with mice is “showed efficacy in the assay”. Also, in the data set on SNI mice [1], the “paw withdrawal threshold (PWT) by the Von Frey test” value is on record as “significant effects”; the “relief in the SNI model of neuropathic pain” value is “time and dose-dependent relief”; the “mechanosensitivity, paw withdrawal threshold by Von Frey test, dose dependence” value was “dose dependent effects”; the “mechanosensitivity, Von Frey tests, time dependence” value is “time dependent effects”. Moreover, the “response of SNI injured animals to a noxious mechanical stimulus” value with SNI mice [2] is on record as “provided relief in this assay that was comparable to that provided by knockout or knockdown of importin α3”. In data set [3], the c-Fos nuclear accumulation result is listed as “neither drug had any further effect” and the c-Fos nuclear localization result is “significantly reduced c-Fos nuclear accumulation”. In data set [3] (listed as Sulfamethizole), the c-Fos nuclear localization result is reported as “Significant reductions in c-Fos nuclear localization”.
As for `COc1cc([S+](C)[O-])ccc1-c1nc2ncccc2[nH]1` (stereo not drawn) [sulmazole, 2-(2-Methoxy-4-[methylsulfinyl]phenyl)-1H-imidazo(4,5-b)pyridine], the “responsiveness to noxious heat” value in the data set on mice is “showed efficacy in the assay”. Further, in the data set with SNI mice [1], the “paw withdrawal threshold (PWT) by the Von Frey test” value is given as “significant effects”; the “relief in the SNI model of neuropathic pain” value was “time and dose-dependent relief”; the “mechanosensitivity, paw withdrawal threshold by Von Frey test, dose dependence” value is given as “dose dependent effects”; the “mechanosensitivity, Von Frey tests, time dependence” value was “time dependent effects”. For the same molecule, in the data set on SNI mice [2], the “response of SNI injured animals to a noxious mechanical stimulus” value was “provided relief in this assay that was comparable to that provided by knockout or knockdown of importin α3”. Moreover, in data set [3], the c-Fos nuclear accumulation entry was “neither drug had any further effect” and the c-Fos nuclear localization entry is listed as “significantly reduced c-Fos nuclear accumulation”. Also, in data set [3] (listed as Sulmazole), the c-Fos nuclear localization entry is recorded as “Significant reductions in c-Fos nuclear localization”.

B1: shFOS1: AAV9 shRNA targeting c-Fos, SEQ ID NO: 17 (nucleic acid)
DNA: GATCCGGCGGAGACAGATCAACTTGAAGAAGCTTGTTCAAGTTGATCTGTCTCCGCCTTTTTTT
Take B1: in the data set with mice (wild type mice after intrathecal injection of AAV9 construct, vs control construct), the “response to noxious heat” value is “reduced noxious heat responses”.
